In PubChem BioAssay AID1963971 (Molecular Pharmacology Branch, DTP, NCI, 2024):

Tested on: 953936-095-R-J2-PDC spheroids with HUVEC/MSC, viability
Assay: Anticancer human tumor 953936-095-R-J2-PDC patient-derived cervical squamous cell carcinoma cell line growth inhibition [PI3K]
Details: for IC50: curve of first compound; for viability, T/C: stronger effect = lower value
Method in brief: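 Multi-cell spheroids combine tumor cells with HUVEC and human MSCs, treated with targeted agents alone or with inavolisib, alpelisib, duvelisib or copanlisib. Concentrations fall in half-log steps from at or near clinical Cmax, or from 10 microM where Cmax is unknown; viability read-out.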

[1] = second compound 0.0316 µM, first compound 0.0316 µM
[2] = second compound 0.0316 µM, first compound 0.1 µM
[3] = second compound 0.0316 µM, first compound 0.316 µM
[4] = second compound 0.0316 µM, first compound 1 µM
[5] = second compound 0.0316 µM, first compound 3.16 µM
[6] = second compound 0.0316 µM, first compound 10 µM
[7] = second compound 0.1 µM, first compound 0.0316 µM
[8] = second compound 0.1 µM, first compound 0.1 µM
[9] = second compound 0.1 µM, first compound 0.316 µM
[10] = second compound 0.1 µM, first compound 1 µM
[11] = second compound 0.1 µM, first compound 3.16 µM
[12] = second compound 0.1 µM, first compound 10 µM
[13] = second compound 0.316 µM, first compound 0.0316 µM
[14] = second compound 0.316 µM, first compound 0.1 µM
[15] = second compound 0.316 µM, first compound 0.316 µM
[16] = second compound 0.316 µM, first compound 1 µM
[17] = second compound 0.316 µM, first compound 3.16 µM
[18] = second compound 0.316 µM, first compound 10 µM
[19] = second compound 1 µM, first compound 0.0316 µM
[20] = second compound 1 µM, first compound 0.1 µM
[21] = second compound 1 µM, first compound 0.316 µM
[22] = second compound 1 µM, first compound 1 µM
[23] = second compound 1 µM, first compound 3.16 µM
[24] = second compound 1 µM, first compound 10 µM
[25] = second compound 3.16 µM, first compound 0.0316 µM
[26] = second compound 3.16 µM, first compound 0.1 µM
[27] = second compound 3.16 µM, first compound 0.316 µM
[28] = second compound 3.16 µM, first compound 1 µM
[29] = second compound 3.16 µM, first compound 3.16 µM
[30] = second compound 3.16 µM, first compound 10 µM
[31] = second compound 10 µM, first compound 0.0316 µM
[32] = second compound 10 µM, first compound 0.1 µM
[33] = second compound 10 µM, first compound 0.316 µM
[34] = second compound 10 µM, first compound 1 µM
[35] = second compound 10 µM, first compound 3.16 µM
[36] = second compound 10 µM, first compound 10 µM
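Also: spheroids exposed to compounds for seven days before read-out.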

CC1(C)CCC(CN2CCN(c3ccc(C(=O)NS(=O)(=O)c4ccc(NCC5CCOCC5)c([N+](=O)[O-])c4)c(Oc4cnc5[nH]ccc5c4)c3)CC2)=C(c2ccc(Cl)cc2)C1 + Cc1nc(NC(=O)N2CCCC2C(N)=O)sc1-c1ccnc(C(C)(C)C(F)(F)F)c1
IC50 (second compound 0.0316 µM): 6770 nM
IC50 (second compound 0.1 µM): 7010 nM
IC50 (second compound 0.316 µM): 5150 nM
IC50 (second compound 1 µM): < 31.6 nM
IC50 (second compound 3.16 µM): < 31.6 nM
IC50 (second compound 10 µM): < 31.6 nM
viability, T/C [1]: 88.8%
viability, T/C [2]: 96.5%
viability, T/C [3]: 97.6%
viability, T/C [4]: 100%
viability, T/C [5]: 109%
viability, T/C [6]: 25.2%
viability, T/C [7]: 90.7%
viability, T/C [8]: 82.5%
viability, T/C [9]: 82.7%
viability, T/C [10]: 85.7%
viability, T/C [11]: 96%
viability, T/C [12]: 33.5%
viability, T/C [13]: 65.3%
viability, T/C [14]: 64.1%
viability, T/C [15]: 61.1%
viability, T/C [16]: 63.4%
viability, T/C [17]: 67.8%
viability, T/C [18]: 30.5%
viability, T/C [19]: 52.5%
viability, T/C [20]: 47.6%
viability, T/C [21]: 41.2%
viability, T/C [22]: 40.5%
viability, T/C [23]: 40%
viability, T/C [24]: 19.3%
viability, T/C [25]: 27.4%
viability, T/C [26]: 27.2%
viability, T/C [27]: 25.6%
viability, T/C [28]: 26.3%
viability, T/C [29]: 22.3%
viability, T/C [30]: 20.4%
viability, T/C [31]: 11.4%
viability, T/C [32]: 10.8%
viability, T/C [33]: 10.2%
viability, T/C [34]: 11.8%
viability, T/C [35]: 12.4%
viability, T/C [36]: 8.8%

C[C@@H](NC(=O)c1ncnc(N)c1Cl)c1ncc(C(=O)Nc2cc(C(F)(F)F)c(Cl)cn2)s1 + Cc1nc(NC(=O)N2CCCC2C(N)=O)sc1-c1ccnc(C(C)(C)C(F)(F)F)c1
IC50 (second compound 0.0316 µM): > 10000 nM
IC50 (second compound 0.1 µM): > 10000 nM
IC50 (second compound 0.316 µM): > 10000 nM
IC50 (second compound 1 µM): 192 nM
IC50 (second compound 3.16 µM): < 31.6 nM
IC50 (second compound 10 µM): < 31.6 nM
viability, T/C [1]: 91.4%
viability, T/C [2]: 92.8%
viability, T/C [3]: 101%
viability, T/C [4]: 97.8%
viability, T/C [5]: 114%
viability, T/C [6]: 92.1%
viability, T/C [7]: 84.7%
viability, T/C [8]: 86%
viability, T/C [9]: 87%
viability, T/C [10]: 89.4%
viability, T/C [11]: 84.1%
viability, T/C [12]: 81.2%
viability, T/C [13]: 66.5%
viability, T/C [14]: 69.3%
viability, T/C [15]: 65.1%
viability, T/C [16]: 72%
viability, T/C [17]: 67%
viability, T/C [18]: 71.3%
viability, T/C [19]: 53.3%
viability, T/C [20]: 49.1%
viability, T/C [21]: 47.2%
viability, T/C [22]: 49.9%
viability, T/C [23]: 49.5%
viability, T/C [24]: 45.2%
viability, T/C [25]: 28.2%
viability, T/C [26]: 28.7%
viability, T/C [27]: 27.6%
viability, T/C [28]: 29%
viability, T/C [29]: 31%
viability, T/C [30]: 27.4%
viability, T/C [31]: 13.3%
viability, T/C [32]: 14.4%
viability, T/C [33]: 15%
viability, T/C [34]: 17%
viability, T/C [35]: 14.9%
viability, T/C [36]: 11.6%

Cn1ncnc1[C@H]1c2n[nH]c(=O)c3cc(F)cc(c23)N[C@@H]1c1ccc(F)cc1 + Cc1nc(NC(=O)N2CCCC2C(N)=O)sc1-c1ccnc(C(C)(C)C(F)(F)F)c1
IC50 (second compound 0.0316 µM): > 100 nM
IC50 (second compound 0.1 µM): > 100 nM
IC50 (second compound 0.316 µM): > 100 nM
IC50 (second compound 1 µM): < 0.316 nM
IC50 (second compound 3.16 µM): < 0.316 nM
IC50 (second compound 10 µM): < 0.316 nM
viability, T/C (second compound 0.0316 µM, first compound 0.000316 µM): 91.5%
viability, T/C (second compound 0.0316 µM, first compound 0.001 µM): 94.8%
viability, T/C (second compound 0.0316 µM, first compound 0.00316 µM): 99.5%
viability, T/C (second compound 0.0316 µM, first compound 0.01 µM): 90.9%
viability, T/C [1]: 94.6%
viability, T/C [2]: 95.7%
viability, T/C (second compound 0.1 µM, first compound 0.000316 µM): 86.6%
viability, T/C (second compound 0.1 µM, first compound 0.001 µM): 79.2%
viability, T/C (second compound 0.1 µM, first compound 0.00316 µM): 83.7%
viability, T/C (second compound 0.1 µM, first compound 0.01 µM): 80.9%
viability, T/C [7]: 83.3%
viability, T/C [8]: 81.5%
viability, T/C (second compound 0.316 µM, first compound 0.000316 µM): 63.3%
viability, T/C (second compound 0.316 µM, first compound 0.001 µM): 63.9%
viability, T/C (second compound 0.316 µM, first compound 0.00316 µM): 62.8%
viability, T/C (second compound 0.316 µM, first compound 0.01 µM): 62.5%
viability, T/C [13]: 66.6%
viability, T/C [14]: 58.2%
viability, T/C (second compound 1 µM, first compound 0.000316 µM): 45.1%
viability, T/C (second compound 1 µM, first compound 0.001 µM): 48.6%
viability, T/C (second compound 1 µM, first compound 0.00316 µM): 44.9%
viability, T/C (second compound 1 µM, first compound 0.01 µM): 43.8%
viability, T/C [19]: 43.2%
viability, T/C [20]: 39.6%
viability, T/C (second compound 3.16 µM, first compound 0.000316 µM): 27%
viability, T/C (second compound 3.16 µM, first compound 0.001 µM): 26.2%
viability, T/C (second compound 3.16 µM, first compound 0.00316 µM): 26.4%
viability, T/C (second compound 3.16 µM, first compound 0.01 µM): 26.3%
viability, T/C [25]: 26.5%
viability, T/C [26]: 25.5%
viability, T/C (second compound 10 µM, first compound 0.000316 µM): 11.4%
viability, T/C (second compound 10 µM, first compound 0.001 µM): 10.4%
viability, T/C (second compound 10 µM, first compound 0.00316 µM): 10.1%
viability, T/C (second compound 10 µM, first compound 0.01 µM): 11.6%
viability, T/C [31]: 12.5%
viability, T/C [32]: 10.9%
